Experimental data from ChEMBL document CHEMBL1201862, “PubChem BioAssay data set” (2004).
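48-hour exposure; five concentrations; linearly interpolated endpoints. Here, GI50 denotes the concentration required for 50% inhibition of growth.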 Calls of active or inactive are those of the source. Cut-off read from the data, not from the text of the source: active = GI50 up to about 1.1 µM and inactive = higher.

Experiments:
Assay in all cases: inhibition of tumour cell growth, NCI panel, 48 h
Hs-578T = system: Hs-578T
COLO 205 = system: COLO 205
OVCAR-3 = system: OVCAR-3
HOP-62 = system: HOP-62
HCC 2998 = system: HCC 2998
RXF 393 = system: RXF 393
SK-MEL-28 = system: SK-MEL-28
SNB-75 = system: SNB-75
SW-620 = system: SW-620
A498 = system: A498
SF-539 = system: SF-539
KM12 = system: KM12
NCI-H522 = system: NCI-H522
MOLT-4 = system: MOLT-4
SK-OV-3 = system: SK-OV-3
NCI-H226 = system: NCI-H226
Malme-3M = system: Malme-3M
IGROV-1 = system: IGROV-1
MCF7 = system: MCF7
CAKI-1 = system: CAKI-1

| Structure (SMILES) | GI50 (Hs-578T) | GI50 (COLO 205) | GI50 (OVCAR-3) | GI50 (HOP-62) | GI50 (HCC 2998) | GI50 (RXF 393) | GI50 (SK-MEL-28) | GI50 (SNB-75) | GI50 (SW-620) | GI50 (A498) | GI50 (SF-539) | GI50 (KM12) | GI50 (NCI-H522) | GI50 (MOLT-4) | GI50 (SK-OV-3) | GI50 (NCI-H226) | GI50 (Malme-3M) | GI50 (IGROV-1) | GI50 (MCF7) | GI50 (CAKI-1) |
| --- | --- | --- | --- | --- | --- | --- | --- | --- | --- | --- | --- | --- | --- | --- | --- | --- | --- | --- | --- | --- |
| O=C(O)C1(Cc2ccc3c(c2)CCC3)Cc2ccccc2C1 | 73.1 µM (inactive) | 30.2 µM (inactive) | 71.3 µM (inactive) | 84.5 µM (inactive) | 41.9 µM (inactive) | 68.2 µM (inactive) | 60.8 µM (inactive) | 67.1 µM (inactive) | > 100 µM (inactive) | 36.1 µM (inactive) | > 100 µM (inactive) | 46.3 µM (inactive) | 42.3 µM (inactive) | 71.8 µM (inactive) | 31 µM (inactive) | 91 µM (inactive) | 71.3 µM (inactive) | > 100 µM (inactive) | > 100 µM (inactive) | – |
| CCC(=O)NC(Nc1ccc(O)cc1)(C(F)(F)F)C(F)(F)F | > 100 µM (inactive) | – | 40.6 µM (inactive) | > 100 µM (inactive) | > 100 µM (inactive) | 28.8 µM (inactive) | > 100 µM (inactive) | > 100 µM (inactive) | – | > 100 µM (inactive) | 96.4 µM (inactive) | 62.7 µM (inactive) | 27.4 µM (inactive) | 42.5 µM (inactive) | > 100 µM (inactive) | > 100 µM (inactive) | 42.2 µM (inactive) | – | 46.3 µM (inactive) | – |
| COc1ccc(CCCNC(=O)c2cc(OC)c(OC)cc2CCO)cc1OC | > 100 µM (inactive) | > 100 µM (inactive) | > 100 µM (inactive) | > 100 µM (inactive) | > 100 µM (inactive) | > 100 µM (inactive) | > 100 µM (inactive) | > 100 µM (inactive) | > 100 µM (inactive) | > 100 µM (inactive) | > 100 µM (inactive) | > 100 µM (inactive) | > 100 µM (inactive) | > 100 µM (inactive) | > 100 µM (inactive) | > 100 µM (inactive) | – | > 100 µM (inactive) | > 100 µM (inactive) | > 100 µM (inactive) |
| O=c1c2cc(I)ccc2nc(S)n1Cc1ccccc1 | 16 µM (inactive) | > 100 µM (inactive) | 6.65 µM (inactive) | 13.3 µM (inactive) | 17.1 µM (inactive) | 16.6 µM (inactive) | 43.2 µM (inactive) | 20.6 µM (inactive) | 59 µM (inactive) | 18.8 µM (inactive) | 15.5 µM (inactive) | 9.08 µM (inactive) | 3.96 µM (inactive) | > 100 µM (inactive) | 27.5 µM (inactive) | 15.5 µM (inactive) | – | 4.07 µM (inactive) | 28.1 µM (inactive) | 1.92 µM (inactive) |
| C[C@]1(O)CC[C@H]2[C@@H]3CCc4cc(O)ccc4[C@H]3CC[C@@]21C | 1.19 µM (inactive) | 7.35 µM (inactive) | – | – | 0.233 µM (active) | 0.889 µM (active) | 34.8 µM (inactive) | > 100 µM (inactive) | 0.568 µM (active) | 0.456 µM (active) | 0.356 µM (active) | 0.308 µM (active) | 0.991 µM (active) | 0.664 µM (active) | 89.5 µM (inactive) | – | 0.353 µM (active) | 0.735 µM (active) | 0.665 µM (active) | 3.62 µM (inactive) |
| O=C1CC(c2ccc(Cl)cc2)Oc2ccccc21 (centres undefined) | 15 µM (inactive) | 27 µM (inactive) | – | 19.6 µM (inactive) | 25.6 µM (inactive) | – | 85.9 µM (inactive) | 13.6 µM (inactive) | 25.7 µM (inactive) | 26.2 µM (inactive) | 13.4 µM (inactive) | 12.9 µM (inactive) | – | – | 19.4 µM (inactive) | 4.75 µM (inactive) | – | 14.6 µM (inactive) | 3.83 µM (inactive) | 26.3 µM (inactive) |
| O=C(/C=C/c1ccc(O)c(O)c1)NCCc1ccc(-c2ccccc2)cc1 | > 100 µM (inactive) | 78.3 µM (inactive) | 20.4 µM (inactive) | 31.3 µM (inactive) | 54.3 µM (inactive) | 57.1 µM (inactive) | 59.8 µM (inactive) | > 100 µM (inactive) | > 100 µM (inactive) | > 100 µM (inactive) | > 100 µM (inactive) | 30.8 µM (inactive) | > 100 µM (inactive) | 41.3 µM (inactive) | > 100 µM (inactive) | – | 17.9 µM (inactive) | – | 32.3 µM (inactive) | 40.8 µM (inactive) |
| CCOc1ccc(NC(=O)/C(=N\NC(C)(C)C)C2C(=O)Nc3ccccc3[S+]2[O-])cc1 (centres undefined) | > 100 µM (inactive) | > 100 µM (inactive) | > 100 µM (inactive) | > 100 µM (inactive) | > 100 µM (inactive) | > 100 µM (inactive) | > 100 µM (inactive) | > 100 µM (inactive) | > 100 µM (inactive) | > 100 µM (inactive) | > 100 µM (inactive) | > 100 µM (inactive) | > 100 µM (inactive) | > 100 µM (inactive) | > 100 µM (inactive) | > 100 µM (inactive) | > 100 µM (inactive) | > 100 µM (inactive) | > 100 µM (inactive) | – |
| CCOC(=O)C1(CO)CSCCSC1 | > 100 µM (inactive) | > 100 µM (inactive) | – | – | > 100 µM (inactive) | > 100 µM (inactive) | > 100 µM (inactive) | > 100 µM (inactive) | > 100 µM (inactive) | > 100 µM (inactive) | – | > 100 µM (inactive) | > 100 µM (inactive) | > 100 µM (inactive) | > 100 µM (inactive) | > 100 µM (inactive) | – | – | > 100 µM (inactive) | – |
| Cn1c(=O)c2nc(COCc3nc4c(=O)n(C)c(=O)n(C)c4[nH]3)[nH]c2n(C)c1=O | > 100 µM (inactive) | > 100 µM (inactive) | > 100 µM (inactive) | > 100 µM (inactive) | – | > 100 µM (inactive) | > 100 µM (inactive) | > 100 µM (inactive) | > 100 µM (inactive) | > 100 µM (inactive) | > 100 µM (inactive) | > 100 µM (inactive) | > 100 µM (inactive) | > 100 µM (inactive) | > 100 µM (inactive) | > 100 µM (inactive) | > 100 µM (inactive) | > 100 µM (inactive) | > 100 µM (inactive) | > 100 µM (inactive) |
| O=c1c(C(c2cccc(C(c3c(O)oc4ccccc4c3=O)c3c(O)oc4ccccc4c3=O)c2)c2c(O)oc3ccccc3c2=O)c(O)oc2ccccc12 | 25.5 µM (inactive) | 86.3 µM (inactive) | 35.3 µM (inactive) | 30.3 µM (inactive) | 15.6 µM (inactive) | > 100 µM (inactive) | > 100 µM (inactive) | 3.73 µM (inactive) | > 100 µM (inactive) | > 100 µM (inactive) | 19.8 µM (inactive) | 30.5 µM (inactive) | 14.5 µM (inactive) | 29.2 µM (inactive) | 18.2 µM (inactive) | 44.7 µM (inactive) | – | 34 µM (inactive) | 13.6 µM (inactive) | 16.9 µM (inactive) |
